Test results reported in patent US20250213571A1, “TYK2 INHIBITORS AND USES THEREOF” (Alumis Inc., priority 2022, published 2025).
Like-named read-outs stand apart in the source and are kept apart here. Each block holds one molecule with its values, some of them ahead of it.

How the values were obtained:
TYK2 JH1 = TYK2 JH1 (Homo sapiens (Human), UniProt P29597); test: TYK2 JH1 binding (Kd, Table 2); conditions: JH1 domain
[1] = cn_pd bond, 14-membered ring
[2] = molecular target: human TYK2 (JH2domain-pseudokinase) (Homo sapiens (Human), UniProt P29597); test: TYK2 JH2 domain binding assay (KINOMEscan)
Procedure: Binding constants for the compounds described herein against the JH2 domain were determined by the following protocol for a KINOMEscan® assay (DiscoveRx). A fusion protein of a partial length construct of human TYK2 (JH2domain-pseudokinase) (amino acids G556 to D888 based on reference sequence NP_003322.3) and the DNA binding domain of NFkB was expressed in transiently transfected HEK293 cells. From these HEK 293 cells, extracts were prepared in M-PER extraction buffer (Pierce) in the presence of Protease Inhibitor Cocktail Complete (Roche) and Phosphatase Inhibitor Cocktail Set II (Merck) per manufacturers' instructions. The TYK2 (JH2domain-pseudokinase) fusion protein was labeled with a chimeric double-stranded DNA tag containing the NFkB binding site fused to an amplicon for qPCR readout, which was added directly to the expression extract (the final concentration of DNA-tag in the binding reaction is 0.1 nM).
Streptavidin-coated magnetic beads (Dynal M280) were treated with a biotinylated small molecule ligand for 30 minutes at room temperature to generate affinity resins the binding assays. The liganded beads were blocked with excess biotin and washed with blocking buffer (SeaBlock (Pierce), 1% BSA, 0.05% Tween 20, 1 mM DTT) to remove unbound ligand and to reduce nonspecific binding.
The binding reaction was assembled by combining 16 μl of DNA-tagged kinase extract, 3.8 μl liganded affinity beads, and 0.18 μl test compound (PBS/0.05% Tween 20/10 mM DTT/0.1% BSA/2 μg/ml sonicated salmon sperm DNA)]. Extracts were used directly in binding assays without any enzyme purification steps at a ≥10,000-fold overall stock dilution (final DNA-tagged enzyme concentration <0.1 nM). Extracts were loaded with DNA-tag and diluted into the binding reaction in a two-step process. First extracts were diluted 1:100 in 1×binding buffer (PBS/0.05% Tween 20/10 mM DTT/0.1% BSA/2 […] sonicated salmon sperm DNA) containing 10 nM DNA-tag. This dilution was allowed to equilibrate at room temperature for 15 minutes and then subsequently diluted 1:100 in 1× binding buffer. Test compounds were prepared as 111× stocks in 100% DMSO. Kds were determined using an 11-point 3-fold compound dilution series with three DMSO control points. All compounds for Kd measurements were distributed by acoustic transfer (non-contact dispensing) in 100% DMSO. The compounds were then diluted directly into the assays such that the final concentration of DMSO was 0.9%. All reactions were performed in polypropylene 384-well plates. Each was a final volume of 0.02 mL. Assays were incubated with shaking for 1 hour at room temperature. Then the beads were pelleted and washed with wash buffer (1×PBS, 0.05% Tween 20) to remove displaced kinase and test compound. The washed based were resuspended in elution buffer (1 λPBS, 0.05% Tween […] non-biotinylated affinity ligand) and incubated at room temperature with shaking for 30 minutes. The kinase concentration in the eluates was measured by qPCR. qPCR reactions were assembled by adding 2.5 μL of kinase eluate to 7.5 μL of qPCR master mix containing […] amplicon primers and 0.15 μM amplicon probe. The qPCR protocol consisted of a 10 minute hot start at 95° C., followed by 35 cycles of 95° C. for 15 seconds, 60° C. for 1 minute.
Test compounds were prepared as 111× stocks in 100% DMSO. Kds were determined using an 11-point 3-fold compound dilution series with three DMSO control points. All compounds for Kd measurements were distributed by acoustic transfer (non-contact dispensing) in 100% DMSO. The compounds were then diluted directly into the assays such that the final concentration of DMSO was 0.9%. The Kds were determined using a compound top concentration of 30,000 nM. Kd measurements were performed in duplicate.
Binding constants (Kds) were calculated with a standard dose-response curve using the Hill equation: […]
The Hill Slope was set to −1. […]

JAK1 JH2 = JAK1 JH2 (Homo sapiens (Human), UniProt P23458); test: JAK1 JH2 binding (Kd, Table 2); conditions: JH2 domain
JAK3 JH1 = JAK3 JH1 (Homo sapiens (Human), UniProt P52333); test: JAK3 JH1 binding (Kd, Table 2); conditions: JH1 domain
JAK2 JH1 = JAK2 JH1 (Homo sapiens (Human), UniProt O60674); test: JAK2 JH1 binding (Kd, Table 2); conditions: JH1 domain
JAK2 JH2 = JAK2 JH2 (Homo sapiens (Human), UniProt O60674); test: JAK2 JH2 binding (Kd, Table 2); conditions: JH2 domain
JAK1 JH1 = JAK1 JH1 (Homo sapiens (Human), UniProt P23458); test: JAK1 JH1 binding (Kd, Table 2); conditions: JH1 domain
[3] = cn_pd bond, 14-membered ring; remark: listed apart in the source

Sequence of JAK2 JH1 (O60674 849-1124): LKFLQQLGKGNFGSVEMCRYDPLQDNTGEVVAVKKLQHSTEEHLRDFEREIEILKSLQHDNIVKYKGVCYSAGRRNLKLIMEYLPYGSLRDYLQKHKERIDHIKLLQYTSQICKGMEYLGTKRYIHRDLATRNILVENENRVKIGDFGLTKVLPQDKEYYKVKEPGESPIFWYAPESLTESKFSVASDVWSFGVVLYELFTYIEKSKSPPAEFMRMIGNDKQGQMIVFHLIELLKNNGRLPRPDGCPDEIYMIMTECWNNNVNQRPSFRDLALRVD
Sequence of human TYK2 (JH2domain-pseudokinase) (P29597 556-888): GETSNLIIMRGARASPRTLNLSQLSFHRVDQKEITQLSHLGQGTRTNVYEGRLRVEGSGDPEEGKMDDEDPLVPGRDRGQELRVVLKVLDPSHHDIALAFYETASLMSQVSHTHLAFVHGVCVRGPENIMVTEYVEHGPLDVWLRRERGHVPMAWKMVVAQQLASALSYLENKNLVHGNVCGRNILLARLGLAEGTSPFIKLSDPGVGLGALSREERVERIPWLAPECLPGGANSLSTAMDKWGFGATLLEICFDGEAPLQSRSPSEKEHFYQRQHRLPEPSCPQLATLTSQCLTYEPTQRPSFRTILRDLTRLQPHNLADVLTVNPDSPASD
Sequence of JAK2 JH2 (O60674 545-809): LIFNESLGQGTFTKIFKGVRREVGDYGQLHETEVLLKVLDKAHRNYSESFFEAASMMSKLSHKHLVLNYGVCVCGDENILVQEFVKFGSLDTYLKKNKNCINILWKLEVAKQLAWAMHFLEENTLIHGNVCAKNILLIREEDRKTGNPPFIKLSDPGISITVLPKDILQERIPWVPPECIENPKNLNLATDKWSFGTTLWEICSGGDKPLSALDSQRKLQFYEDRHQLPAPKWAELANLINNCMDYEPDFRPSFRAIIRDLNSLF
Sequence of JAK1 JH2 (P23458 583-855): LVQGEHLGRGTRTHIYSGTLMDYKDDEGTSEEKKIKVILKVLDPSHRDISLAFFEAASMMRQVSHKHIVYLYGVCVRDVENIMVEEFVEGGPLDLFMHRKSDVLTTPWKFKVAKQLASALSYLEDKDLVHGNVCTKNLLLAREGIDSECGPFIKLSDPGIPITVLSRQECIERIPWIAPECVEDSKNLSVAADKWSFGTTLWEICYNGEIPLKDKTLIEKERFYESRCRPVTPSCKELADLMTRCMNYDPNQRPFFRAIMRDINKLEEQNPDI
Sequence of TYK2 JH1 (P29597 897-1176): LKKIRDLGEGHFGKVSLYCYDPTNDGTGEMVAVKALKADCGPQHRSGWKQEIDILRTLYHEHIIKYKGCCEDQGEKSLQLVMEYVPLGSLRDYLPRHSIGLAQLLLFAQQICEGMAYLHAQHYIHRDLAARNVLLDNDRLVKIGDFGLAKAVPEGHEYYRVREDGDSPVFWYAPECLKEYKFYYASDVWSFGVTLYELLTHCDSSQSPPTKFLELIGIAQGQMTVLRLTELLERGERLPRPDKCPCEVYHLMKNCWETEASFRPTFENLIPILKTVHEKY
Sequence of JAK3 JH1 (P52333 822-1111): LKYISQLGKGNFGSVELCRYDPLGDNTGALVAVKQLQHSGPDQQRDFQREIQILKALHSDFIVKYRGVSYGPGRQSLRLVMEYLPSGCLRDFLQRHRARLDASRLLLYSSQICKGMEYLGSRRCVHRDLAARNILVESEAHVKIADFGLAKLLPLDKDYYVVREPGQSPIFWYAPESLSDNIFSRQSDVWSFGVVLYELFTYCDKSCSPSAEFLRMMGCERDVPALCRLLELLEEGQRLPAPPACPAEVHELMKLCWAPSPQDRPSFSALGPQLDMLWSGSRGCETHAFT
Sequence of JAK1 JH1 (P23458 875-1153): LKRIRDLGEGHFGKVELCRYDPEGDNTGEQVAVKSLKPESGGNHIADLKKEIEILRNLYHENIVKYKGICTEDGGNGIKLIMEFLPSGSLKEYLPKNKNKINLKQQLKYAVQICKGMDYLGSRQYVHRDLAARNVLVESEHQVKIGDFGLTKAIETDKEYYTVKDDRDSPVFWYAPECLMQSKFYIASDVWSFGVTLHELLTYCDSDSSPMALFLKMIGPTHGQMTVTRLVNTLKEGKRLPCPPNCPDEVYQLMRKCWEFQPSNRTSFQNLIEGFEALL

Kd (TYK2 JH1): ≥ 30 µM | Kd [2]: < 0.01 µM | Kd (JAK1 JH2): 1 to 10 µM
Molecule: CNc1cc2nn3c(cnc13)C(=O)O[C@H](C)COCc1cc(c3nnn(C)c3c1)N2 [Compound 3, (7R,E)-3′,7-Dimethyl-1^8-(methylamino)-3^1H-5,8-dioxa-2-aza-1(6,3),3(4,6)-diimidazo[1,2-b]pyridazinacyclononaphan-9-one]
ring closure, isolated yield ([1]; from CNc1cc(Cl)nn2c(C(=O)O[C@H](C)COCc3cc(N)c4nnn(C)c4c3)cnc12, Pd2(dba)3/BINAP/Cs2CO3, dioxane, 27.5 mM, 16.0 h): 33%

Kd (JAK3 JH1): 10 to 30 µM | Kd (JAK2 JH1): ≥ 30 µM | Kd (TYK2 JH1): 1 to 10 µM | Kd [2]: < 0.01 µM | Kd (JAK2 JH2): 1 to 10 µM | Kd (JAK1 JH2): 0.01 to 1 µM | Kd (JAK1 JH1): ≥ 30 µM
Molecule: [2H]C1([2H])OC[C@@H](C)NC(=O)c2cnc3c(NC)cc(nn23)Nc2cc1cc1c2nnn1C [Compound 7, (7R,E)-3′,7-Dimethyl-1^8-(methylamino)-3^1H-5-oxa-2,8-diaza-1(6,3),3(4,6)-diimidazo[1,2-b]pyridazinacyclononaphan-9-one-4,4-d2]

Kd (JAK3 JH1): 10 to 30 µM | Kd (JAK2 JH1): ≥ 30 µM | Kd (TYK2 JH1): 1 to 10 µM | Kd (JAK2 JH2): 1 to 10 µM | Kd (JAK1 JH2): 0.01 to 1 µM | Kd (JAK1 JH1): ≥ 30 µM
Molecule: CNc1cc2nn3c(cnc13)C(=O)N[C@H](C)COCc1cc(c3c(c1)ncn3C)N2 [Compound 8, (7R,E)-3′,7-Dimethyl-1^8-(methylamino)-3^1H-5-oxa-2,8-diaza-1(6,3)-imidazo[1,2-b] pyridazina-3(7,5)-benzo[d]imidazolacyclononaphan-9-one]

Kd (JAK3 JH1): ≥ 30 µM | Kd (JAK2 JH1): ≥ 30 µM | Kd (TYK2 JH1): ≥ 30 µM | Kd [2]: < 0.01 µM | Kd (JAK2 JH2): ≥ 30 µM | Kd (JAK1 JH2): 1 to 10 µM | Kd (JAK1 JH1): ≥ 30 µM
Molecule: CNc1cc2nc3c(cnn13)C(=O)N[C@H](C)COCc1cc(c3nnn(C)c3c1)N2 [Compound 33]

Kd (JAK3 JH1): ≥ 30 µM | Kd (JAK2 JH1): ≥ 30 µM | Kd (TYK2 JH1): ≥ 30 µM | Kd [2]: < 0.01 µM | Kd (JAK2 JH2): 10 to 30 µM | Kd (JAK1 JH2): 0.01 to 1 µM | Kd (JAK1 JH1): ≥ 30 µM
Molecule: CNc1cc2nc3c(cnn13)C(=O)N[C@H](C)COCc1cc(c3nn(C)nc3c1)N2 [Compound 34]

Kd (JAK3 JH1): ≥ 30 µM | Kd (JAK2 JH1): ≥ 30 µM | Kd (TYK2 JH1): ≥ 30 µM | Kd [2]: < 0.01 µM | Kd (JAK2 JH2): ≥ 30 µM | Kd (JAK1 JH2): 10 to 30 µM | Kd (JAK1 JH1): ≥ 30 µM
Molecule: CNc1cc2nc3c(cnn13)C(=O)N[C@H](C)COCc1cc(c3c(c1)nnn3C)N2 [Compound 37]

Kd [2]: 0.01 to 1 µM
Molecule: COc1nc2cn3c(c(C)nc13)C(=O)N[C@H](C)COCc1cc(c3nnn(C)c3c1)N2 [Compound 72]
ring closure, yield after HPLC ([3]; from COc1nc(Br)cn2c(C(=O)N[C@H](C)COCc3cc(N)c4nnn(C)c4c3)c(C)nc12, RuPhos Pd G3/Cs2CO3, 1,4-dioxane, 72.0 mM, 80.0 °C, 4.0 h): 21%

Kd [2]: 0.01 to 1 µM
Molecule: C[C@@H]1COCc2cc(c3nnn(C)c3c2)Nc2cn3c(cnc3c(N)n2)C(=O)N1 [Compound 73]
ring closure, yield after HPLC ([3]; from C[C@H](COCc1cc(N)c2nnn(C)c2c1)NC(=O)c1cnc2c(N)nc(Br)cn12, RuPhos Pd G3 (0.5 eq)/Cs2CO3, dioxane, 64.0 mM, 100.0 °C, 16.0 h): 4.4%

Kd [2]: 0.01 to 1 µM
Molecule: Cc1nc2c(N)nc3cn2c1C(=O)N[C@H](C)COCc1cc(c2nnn(C)c2c1)N3 [Compound 74]
ring closure, yield after HPLC ([3]; from Cc1nc2c(N)nc(Br)cn2c1C(=O)N[C@H](C)COCc1cc(N)c2nnn(C)c2c1, Pd2(dba)3/Xantphos/Cs2CO3, dioxane, 100.0 °C, 16.0 h): 6.2%

Kd [2]: 1 to 10 µM
Molecule: CNc1nc2cn3c(c(C)nc13)C(=O)N[C@H](C)COCc1cc(c3nnn(C)c3c1)N2 [Compound 78]
ring closure, yield after HPLC ([3]; from CNc1nc(Br)cn2c(C(=O)N[C@H](C)COCc3cc(N)c4nnn(C)c4c3)c(C)nc12, RuPhos Pd G3/Cs2CO3, 1,4-dioxane, 64.0 mM, 80.0 °C): 11.3%

Molecule: tert-butyl N-methy 1-N-[(12R)-12-methyl-10-oxo-14-oxa-2,4,5,7,11,20-hexaazapentacyclo [13.6.2.2^{3,6}0.^{5,9}0.^{19,23}]pentacosa 1(21),3,6,8,15,17,19,22,24-nonaen-24-yl]carbamate
ring closure, isolated yield ([1]; Pd2(dba)3/Xantphos, 1,4-dioxane, 34.0 mM, 80.0 °C): 66%

Molecule: tert-butyl N-methyl-N-[(12R)-12-methyl-10-oxo-2,4,5,7,11,14,16,18-octaazapentacyclo[13.6.2.2^(3,6.0^(5,9.0^(19,23]pentacosa-1(21),3,6,8,15,17,19,22,24-nonaen-24-yl]carbamate
ring closure, isolated yield ([1]; Pd2(dba)3/Xantphos/Cs2CO3, 1,4-dioxane, 100.0 mM, 85.0 °C): 18%

Molecule: tert-butyl N-methyl-N-[(12R)-12-methyl-10-oxo-2,4,5,7,11,14,18-heptaazapentacyclo[13.6.2.2^(3,6.0^(5,9.0^(19,23]pentacosa-1(21),3,6,8,15,17,19,22,24-nonaen-24-yl]carbamate
ring closure, isolated yield ([1]; Pd2(dba)3/Xantphos/Cs2CO3, 1,4-dioxane, 85.0 mM, 90.0 °C): 62%

Molecule: tert-butyl N-methyl-N-[(12R)-12-methyl-10-oxo-14-oxa-2,4,5,7,11,16-hexaazapentacyclo[13.6.2.2^(3,6.0^(5,9.0^(19,23]pentacosa-1(21),3,6,8,15,17,19,22,24-nonaen-24-yl]carbamate
ring closure, yield after HPLC ([3]; Pd2(dba)3/Xantphos/Cs2CO3, 1,4-dioxane, 50.0 mM, 80.0 °C): 60%

Molecule: tert-butyl N-methyl-N-[(12R)-12-methyl-10-oxo-14-oxa-2,4,5,7,11,18-hexaazapentacyclo[13.6.2.2^(3,6.0^(5,9.0^(19,23]pentacosa-1(22),3,6,8,15,17,19(23),20,24-nonaen-24-yl]carbamate
ring closure, isolated yield ([1]; Pd2(dba)3/Cs2CO3, 1,4-dioxane, 42.3 mM, 80.0 °C): 67%

Molecule: tert-butyl N-methyl-N-[(12R)-12-methyl-10-oxo-14-oxa-2,4,5,7,11,22-hexaazapentacyclo[13.6.2.2^(3,6.0^(5,9.0^(19,23]pentacosa-1(21),3,6,8,15,17,19,22,24-nonaen-24-yl]carbamate
ring closure, isolated yield ([1]; Pd2(dba)3/Xantphos/Cs2CO3, 1,4-dioxane, 95.0 mM, 80.0 °C): 86%

Molecule: tert-butyl N-methyl-N-[(14R)-14-methyl-16-oxo-12-oxa-2,7,8,15,19,23,24-heptaazapentacyclo[15.5.2.1^(3,10.0^(5,9.0^(20,24]pentacosa-1(23),3(25),4,6,9,17,19,21-octaen-21-yl]carbamate
ring closure, isolated yield ([1]; Pd2(dba)3/BINAP/Cs2CO3, 1,4-dioxane, 23.0 mM, 80.0 °C): 71%
